Test system: Pseudonocardia sp. RMRC PAH4
Test: Tolerance of Pseudonocardia sp. RMRC PAH4 against compactin sodium
Assay type: cell-based
Settings: added after 48 hours on shaker in YMG liquid medium, 220 rpm, 28° C.; conversion rate could not exceed 30%
Protocol: The strain was inoculated in the culture medium consisting of casein hydrolysate 0.05-0.2%; yeast extract 0.05-0.2%; soluble starch 0.5-2.0%; KH2PO4 0.01-0.08%; MgSO4.7H2O 0.05-0.2%; Pravastatin sodium 0.005-0.01%; and Bacto agar 2.0%, pH 7.0, and incubated under 28° C. for 7-20 days.
The above inoculum culture was incubated in compactin sodium-containing YMG liquid medium consisting of yeast extract 0.1-1.0%; malto extract 0.1-1.0%; peptone 0.1-1.0%; glucose 0.5-2.0%; cotton seed extract (Pharmamedia) 0.5-0.5%; KH2PO4 0.1-0.5%; Na2HPO4 0.3-0.7%; MgSO4.7H2O 0.01-0.05%; FeSO4.7H2O 0.001-0.01%; MnSO4.H2O 0.001-0.01%; CaCl2 0.001-0.01%; compactin sodium 0.002-0.01%; pH 6.5, on a shaker, at 220 rpm, under 28° C.
After incubating on shaker as described above for 48 hours, 300-3,000 μg/ml of compactin sodium as added and continued the incubation under same conditions. Utilization rate of compactin sodium and conversion rate of Pravastatin sodium were analyzed by HPLC at an interval of 24 hours.

SMILES: CC[C@H](C)C(=O)O[C@H]1CCC=C2C=C[C@H](C)[C@H](CCCC[C@@H](O)CC(=O)O)[C@H]21 [compactin sodium]
- amount of compactin sodium added above which growth of the bacteria becomes considerably slow: more than 2,500 μg/ml

— patent publication US20070243598A1, “NOVEL PSEUDONOCARDIA SP. RMRC PAH4 AND A PROCESS FOR BIOCONVERTING COMPACTIN INTO PRAVASTATIN USING THE SAME” (CHINESE PETROLEUM CORPORATION, priority 2004, published 2007)
